Test results as given in publication PMC11842024, “Reversible male contraception by targeted inhibition of serine/threonine kinase 33” (Science (New York, N.Y.), 2024).

Legend:
[1] = biological target: T1, AAK1 (Homo sapiens, UniProt Q2M2I8); assay: NanoBRET K192 assay (Promega); type: cell-based; conditions: HEK293 cells
T1 construct: against 192 full-length protein kinases in human embryonic kidney 293 (HEK293) cells; host or cells: HEK293
Method: (§1) NanoBRET Target Engagement K192 assay. HEK293 cells (ATCC) were cultured in DMEM (Gibco) + 10% FBS (Seradigm) and incubated in a humidified 37°C/5% CO2 incubator. The NanoBRET Target Engagement K192 Kinase Selectivity System (Promega) contains 192 unique transfection-ready NanoLuc/Kinase fusions, pre-diluted in either transfection carrier DNA or relevant cyclin DNA. These NanoLuc/Kinase fusion constructs were transfected into HEK293 cells using Fugene HD (Promega) according to the manufacturer’s protocol. Briefly, 10 µL of a 20 µg/mL DNA solution was added to white, TC-treated 96-well assay plates (Corning), followed by 30 µL of a diluted Fugene HD solution (20 µL Fugene/1 mL Opti-MEM). After transfection complex formation, HEK293 cells were resuspended at 3.3 × 105 c/mL in Opti-MEM + 1% FBS and added at a volume of 60 µL per well, to result in approximately 20000 cells/well. Cells were incubated in a humidified 37°C/5% CO2 incubator for 20 hours. Tracer K-10 (Promega) was prepared at a 100× concentration in DMSO (Sigma) and diluted to a working concentration of 10× in tracer dilution buffer (12.5 mM HEPES, 31.25% PEG400, pH 7.5) (Promega). Test compounds were prepared as concentrated stock solutions in DMSO and diluted in Opti-MEM to prepare 10× working stocks. Cells were equilibrated with test compounds and Tracer K-10 for 2 hours prior to BRET measurements. For target engagement analysis, Tracer K-10 was added to cells at one of 4 […]
(§2) manufacturer’s protocol. To measure BRET, NanoBRET NanoGlo Substrate and Extracellular NanoLuc Inhibitor (Promega) were added according to the manufacturer’s protocol, and filtered luminescence was measured on a GloMax Discover luminometer equipped with 450 nm BP filter (donor) and 600 nm LP filter (acceptor), using 0.5 s integration time. Milli-BRET units are calculated by multiplying the raw BRET units by 1000.
(§3) For Fractional Occupancy determination, the following equation was used:
(§4) % Occupancy = [1-(X-Z)/(Y-Z)]×100
(§5) Where X = BRET in the presence of the test compound and Tracer K10, Y = BRET in the presence of Tracer K10 only, and Z = Full occupancy, or BRET in the absence of the test compound and […]
(§6) Tracer K10. […]

[2] = biological target: T2, BMP2K (Homo sapiens, UniProt Q9NSY1); assay: NanoBRET K192 assay (Promega); type: cell-based; conditions: HEK293 cells
T2 construct: against 192 full-length protein kinases in human embryonic kidney 293 (HEK293) cells; host or cells: HEK293
T2 sequence (Q9NSY1 whole entry): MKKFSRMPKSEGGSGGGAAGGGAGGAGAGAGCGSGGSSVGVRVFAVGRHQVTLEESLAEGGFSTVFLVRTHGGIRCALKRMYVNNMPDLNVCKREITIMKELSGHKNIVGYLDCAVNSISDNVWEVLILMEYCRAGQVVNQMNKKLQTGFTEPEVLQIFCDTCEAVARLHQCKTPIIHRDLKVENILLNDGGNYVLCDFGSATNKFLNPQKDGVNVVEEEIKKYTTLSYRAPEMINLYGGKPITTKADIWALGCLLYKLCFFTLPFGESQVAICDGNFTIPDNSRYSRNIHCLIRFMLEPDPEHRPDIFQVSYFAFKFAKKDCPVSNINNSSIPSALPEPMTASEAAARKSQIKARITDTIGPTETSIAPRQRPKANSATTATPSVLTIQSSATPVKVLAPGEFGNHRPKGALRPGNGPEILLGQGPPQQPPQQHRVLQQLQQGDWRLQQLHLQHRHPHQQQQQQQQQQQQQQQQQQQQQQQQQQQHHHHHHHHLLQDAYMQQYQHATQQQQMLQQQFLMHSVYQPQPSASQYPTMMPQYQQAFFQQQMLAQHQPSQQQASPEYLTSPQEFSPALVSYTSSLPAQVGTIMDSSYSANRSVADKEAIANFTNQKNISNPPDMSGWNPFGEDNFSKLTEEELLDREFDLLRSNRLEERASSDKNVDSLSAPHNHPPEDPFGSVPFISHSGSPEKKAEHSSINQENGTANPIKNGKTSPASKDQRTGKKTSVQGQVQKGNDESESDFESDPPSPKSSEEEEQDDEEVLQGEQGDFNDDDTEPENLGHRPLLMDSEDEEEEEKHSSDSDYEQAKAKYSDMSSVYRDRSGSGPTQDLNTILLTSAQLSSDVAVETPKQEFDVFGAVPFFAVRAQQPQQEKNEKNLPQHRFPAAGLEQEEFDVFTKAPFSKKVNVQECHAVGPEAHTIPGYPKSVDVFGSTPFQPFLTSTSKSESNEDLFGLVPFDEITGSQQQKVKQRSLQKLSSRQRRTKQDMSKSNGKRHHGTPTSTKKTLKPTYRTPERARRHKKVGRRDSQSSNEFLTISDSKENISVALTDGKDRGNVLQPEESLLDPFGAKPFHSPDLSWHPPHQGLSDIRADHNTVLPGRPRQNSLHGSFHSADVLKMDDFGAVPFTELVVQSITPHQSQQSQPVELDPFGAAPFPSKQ
Method: as §1, §2, §3, §4, §5, §6

[3] = biological target: T3, EPHA1 (Homo sapiens, UniProt P21709); assay: NanoBRET K192 assay (Promega); type: cell-based; conditions: HEK293 cells
T3 construct: against 192 full-length protein kinases in human embryonic kidney 293 (HEK293) cells; host or cells: HEK293
T3 sequence (P21709 26-976): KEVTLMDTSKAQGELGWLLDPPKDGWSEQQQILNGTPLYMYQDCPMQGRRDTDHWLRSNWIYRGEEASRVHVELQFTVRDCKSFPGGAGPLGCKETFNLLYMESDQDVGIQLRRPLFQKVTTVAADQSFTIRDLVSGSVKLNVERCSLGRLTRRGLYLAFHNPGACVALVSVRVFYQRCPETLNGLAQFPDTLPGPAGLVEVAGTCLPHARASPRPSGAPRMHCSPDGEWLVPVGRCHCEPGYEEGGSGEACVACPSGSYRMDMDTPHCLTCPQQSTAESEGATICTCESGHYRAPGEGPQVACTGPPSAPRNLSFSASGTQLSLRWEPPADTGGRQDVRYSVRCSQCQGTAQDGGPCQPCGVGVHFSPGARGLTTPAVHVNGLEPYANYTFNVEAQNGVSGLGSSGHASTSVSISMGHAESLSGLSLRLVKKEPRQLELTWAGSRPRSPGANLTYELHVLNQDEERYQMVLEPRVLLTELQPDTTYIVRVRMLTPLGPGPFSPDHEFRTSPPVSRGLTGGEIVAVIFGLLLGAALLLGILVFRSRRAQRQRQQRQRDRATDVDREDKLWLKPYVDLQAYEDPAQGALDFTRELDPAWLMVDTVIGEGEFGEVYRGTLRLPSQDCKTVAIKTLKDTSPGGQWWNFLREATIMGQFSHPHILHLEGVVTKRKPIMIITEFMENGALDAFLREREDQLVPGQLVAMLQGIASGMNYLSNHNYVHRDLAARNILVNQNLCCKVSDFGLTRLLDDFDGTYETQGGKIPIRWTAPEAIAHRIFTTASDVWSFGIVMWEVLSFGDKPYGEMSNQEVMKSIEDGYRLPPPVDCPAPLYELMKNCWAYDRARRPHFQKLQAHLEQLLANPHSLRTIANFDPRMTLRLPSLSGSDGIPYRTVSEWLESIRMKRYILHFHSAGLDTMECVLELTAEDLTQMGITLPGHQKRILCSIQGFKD
Method: as §1, §2, §3, §4, §5, §6

[4] = biological target: T4, FER (Homo sapiens, UniProt P16591); assay: NanoBRET K192 assay (Promega); type: cell-based; conditions: HEK293 cells
T4 construct: against 192 full-length protein kinases in human embryonic kidney 293 (HEK293) cells; host or cells: HEK293
Method: as §1, §2, §3, §4, §5, §6

[5] = biological target: T5, FLT3 (Homo sapiens, UniProt P36888); assay: NanoBRET K192 assay (Promega); type: cell-based; conditions: HEK293 cells
T5 construct: against 192 full-length protein kinases in human embryonic kidney 293 (HEK293) cells; host or cells: HEK293
Method: as §1, §2, §3, §4, §5, §6

[6] = biological target: T6, NTRK1 (Homo sapiens, UniProt P04629); assay: NanoBRET K192 assay (Promega); type: cell-based; conditions: HEK293 cells
T6 construct: against 192 full-length protein kinases in human embryonic kidney 293 (HEK293) cells; host or cells: HEK293
T6 sequence (P04629 33-796): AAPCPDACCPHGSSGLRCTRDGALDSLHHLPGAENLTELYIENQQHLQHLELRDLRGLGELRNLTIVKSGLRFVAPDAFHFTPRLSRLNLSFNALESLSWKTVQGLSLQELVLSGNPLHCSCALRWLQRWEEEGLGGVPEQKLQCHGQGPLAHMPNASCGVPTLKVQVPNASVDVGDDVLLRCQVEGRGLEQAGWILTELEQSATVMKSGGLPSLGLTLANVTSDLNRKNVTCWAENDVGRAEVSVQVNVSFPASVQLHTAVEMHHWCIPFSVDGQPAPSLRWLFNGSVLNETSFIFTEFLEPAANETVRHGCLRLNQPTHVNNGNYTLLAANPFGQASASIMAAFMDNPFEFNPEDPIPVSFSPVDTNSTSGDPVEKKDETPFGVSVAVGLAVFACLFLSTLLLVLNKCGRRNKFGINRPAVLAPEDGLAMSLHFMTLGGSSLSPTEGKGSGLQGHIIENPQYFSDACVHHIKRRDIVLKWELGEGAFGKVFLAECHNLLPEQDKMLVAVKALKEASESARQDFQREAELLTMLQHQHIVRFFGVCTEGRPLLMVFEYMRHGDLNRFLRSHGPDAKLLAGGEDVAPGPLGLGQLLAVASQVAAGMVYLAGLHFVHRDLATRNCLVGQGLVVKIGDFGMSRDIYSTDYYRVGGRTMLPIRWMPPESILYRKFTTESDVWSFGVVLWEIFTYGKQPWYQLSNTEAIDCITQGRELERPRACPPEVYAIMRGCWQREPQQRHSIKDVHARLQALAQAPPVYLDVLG
Method: as §1, §2, §3, §4, §5, §6

[7] = biological target: T7, NTRK2 (Homo sapiens, UniProt Q16620); assay: NanoBRET K192 assay (Promega); type: cell-based; conditions: HEK293 cells
T7 construct: against 192 full-length protein kinases in human embryonic kidney 293 (HEK293) cells; host or cells: HEK293
Method: as §1, §2, §3, §4, §5, §6

[8] = biological target: T8, PHKG2 (Homo sapiens, UniProt P15735); assay: NanoBRET K192 assay (Promega); type: cell-based; conditions: HEK293 cells
T8 construct: against 192 full-length protein kinases in human embryonic kidney 293 (HEK293) cells; host or cells: HEK293
T8 sequence (P15735 whole entry): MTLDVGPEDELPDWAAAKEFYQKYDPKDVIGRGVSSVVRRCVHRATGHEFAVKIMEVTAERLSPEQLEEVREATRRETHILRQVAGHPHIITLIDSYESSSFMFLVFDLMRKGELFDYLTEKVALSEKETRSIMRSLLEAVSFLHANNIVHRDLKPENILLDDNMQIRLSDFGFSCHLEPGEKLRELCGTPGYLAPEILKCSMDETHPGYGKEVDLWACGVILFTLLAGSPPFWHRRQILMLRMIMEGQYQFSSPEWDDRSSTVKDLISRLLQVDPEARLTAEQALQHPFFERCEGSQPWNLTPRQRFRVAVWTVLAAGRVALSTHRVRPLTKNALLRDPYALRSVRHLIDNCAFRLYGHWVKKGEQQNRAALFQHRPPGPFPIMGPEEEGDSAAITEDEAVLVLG
Method: as §1, §2, §3, §4, §5, §6

[9] = biological target: T9, PTK2 (Homo sapiens, UniProt Q05397); assay: NanoBRET K192 assay (Promega); type: cell-based; conditions: HEK293 cells
T9 construct: against 192 full-length protein kinases in human embryonic kidney 293 (HEK293) cells; host or cells: HEK293
Method: as §1, §2, §3, §4, §5, §6

[10] = biological target: T10, STK4 (Homo sapiens, UniProt Q13043); assay: NanoBRET K192 assay (Promega); type: cell-based; conditions: HEK293 cells
T10 construct: against 192 full-length protein kinases in human embryonic kidney 293 (HEK293) cells; host or cells: HEK293
Method: as §1, §2, §3, §4, §5, §6

[11] = biological target: CLK4 (Homo sapiens, UniProt Q9HAZ1); assay: LanthaScreen binding assay (ThermoFisher SelectScreen); set-up: purchased SelectScreen Services (ThermoFisher)
CLK4, sequence (Q9HAZ1 whole entry): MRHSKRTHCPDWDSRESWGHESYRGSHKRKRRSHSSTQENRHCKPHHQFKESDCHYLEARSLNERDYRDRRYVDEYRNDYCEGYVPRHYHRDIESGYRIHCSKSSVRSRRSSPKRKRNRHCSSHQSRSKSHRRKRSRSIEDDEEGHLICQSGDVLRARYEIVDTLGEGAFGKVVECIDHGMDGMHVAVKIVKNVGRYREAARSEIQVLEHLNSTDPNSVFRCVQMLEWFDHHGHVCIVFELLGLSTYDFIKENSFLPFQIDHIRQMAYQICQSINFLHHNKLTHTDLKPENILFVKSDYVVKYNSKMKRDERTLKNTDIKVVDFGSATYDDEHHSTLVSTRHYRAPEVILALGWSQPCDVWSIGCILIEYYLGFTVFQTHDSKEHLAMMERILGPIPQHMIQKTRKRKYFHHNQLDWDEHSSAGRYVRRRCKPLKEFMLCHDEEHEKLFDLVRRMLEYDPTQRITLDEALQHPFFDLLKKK
Text: In vitro biochemical assays. Several small molecule assays were outsourced to SelectScreen Services (ThermoFisher) for STK33 and for off-target kinases (data sets are available on demand).
These assays are LanthaScreen (binding assay) and Z’-LYTE (activity assay). Dose-responses were done with at least 5 different concentrations in duplicates, and parameters were optimized by calculations described below and provided with standard errors.
Calculation of Kd values for kinase inhibitors that bind to the ATP pocket of a kinase from LanthaScreen binding data. DynaFit (71) was used to fit complex equilibria where a tracer is displaced by a dilution series of a kinase inhibitor. This method relies on the concentration of inhibitor, as well as the concentration of kinase and tracer, and Kd of the tracer. The latter three parameters are tabulated by ThermoFisher for each kinase in the LanthaScreen assay panel. […]

T1 sequence (Q2M2I8 whole entry): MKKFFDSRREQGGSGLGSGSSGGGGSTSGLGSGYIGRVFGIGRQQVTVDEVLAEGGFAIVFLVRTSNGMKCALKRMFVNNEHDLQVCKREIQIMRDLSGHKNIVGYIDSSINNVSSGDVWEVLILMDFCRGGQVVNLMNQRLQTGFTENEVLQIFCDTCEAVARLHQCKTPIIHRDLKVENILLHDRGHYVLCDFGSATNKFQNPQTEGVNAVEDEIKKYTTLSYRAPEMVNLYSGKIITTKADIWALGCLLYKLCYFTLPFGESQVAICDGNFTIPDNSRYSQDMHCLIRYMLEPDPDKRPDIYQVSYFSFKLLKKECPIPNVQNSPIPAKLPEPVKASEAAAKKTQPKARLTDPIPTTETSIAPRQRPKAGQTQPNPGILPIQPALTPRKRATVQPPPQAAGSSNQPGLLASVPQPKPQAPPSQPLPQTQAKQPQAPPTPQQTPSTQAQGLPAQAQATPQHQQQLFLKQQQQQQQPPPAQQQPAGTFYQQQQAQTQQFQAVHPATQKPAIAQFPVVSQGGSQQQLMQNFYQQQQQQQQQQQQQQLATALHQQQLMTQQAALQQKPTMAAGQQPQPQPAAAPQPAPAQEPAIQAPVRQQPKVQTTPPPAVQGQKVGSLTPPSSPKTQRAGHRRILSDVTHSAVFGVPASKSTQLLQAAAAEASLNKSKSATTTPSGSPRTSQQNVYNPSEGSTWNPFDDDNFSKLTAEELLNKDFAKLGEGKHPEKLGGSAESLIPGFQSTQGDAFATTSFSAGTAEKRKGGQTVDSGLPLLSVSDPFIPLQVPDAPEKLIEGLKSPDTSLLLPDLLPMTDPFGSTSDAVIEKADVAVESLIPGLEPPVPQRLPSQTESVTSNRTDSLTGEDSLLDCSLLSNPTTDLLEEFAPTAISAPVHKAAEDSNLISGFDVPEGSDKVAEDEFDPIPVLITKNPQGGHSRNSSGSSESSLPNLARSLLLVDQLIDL

In the case of `O=C(c1ccc2[nH]nc(C#Cc3ccccc3-c3ccccc3)c2c1)N1CC2(CCCNC2)C1` [CDD-2807], the receptor occupancy at 1 µM [1] is reported as 56.4 ± 1.3%, the receptor occupancy at 1 µM [2] is reported as 54.5 ± 0.3% and the receptor occupancy at 1 µM [3] is reported as 30.6 ± 2.4%. For the same molecule, the receptor occupancy at 1 µM [4] was 38 ± 1.2%, the receptor occupancy at 1 µM [5] was 30.3 ± 2.6% and the receptor occupancy at 1 µM [6] was 31.8 ± 1%. It also gave a receptor occupancy at 1 µM [7] of 44.5%, a receptor occupancy at 1 µM [8] of 59.2 ± 1.2% and a receptor occupancy at 1 µM [9] of 76.5 ± 0.2%. For the same molecule, the receptor occupancy at 1 µM [10] was 30.3 ± 0.4% and the Kd [11] was 0.9 nM.
